Measurements as given in patent US20240409543A1, “PYRROLOPYRAZOLE SPIRO COMPOUND” (CHIA TAI TIANQING PHARMACEUTICAL GROUP CO., LTD., priority 2021, published 2024).

Key:
[1] = test system: MiaPaCa-2 cells (MIAPACA2_PANCREAS); assay: Anti-proliferation experiment on tumor cells with KRAS mutations, MiaPaCa-2 (3D CellTiter-Glo); format: cell-based; conditions: Homo sapiens, MIA PaCa-2, 72 h, 3 days incubation with compound, ultra-low attachment plate
Description: Cell culture medium, penicillin/streptomycin antibiotics purchased from Wisent, and fetal bovine serum purchased from Biosera; 3D CellTiter-Glo (chemiluminescence detection reagent for cell viability) reagent purchased from Promega; Cell lines purchased from Nanjing Cobioer Biosciences Co., Ltd. and Wuhan Procell Life Science & Technology Co., Ltd; and Envision multimode microplate reader (PerkinElmer).
Different types of tumor cells were each seeded in an ultra-low attachment 96-well U-bottom plate, with 80 μL of cell suspension per well. The cell plate was incubated in a CO2 incubator overnight.
Each test compound was diluted in a 5-fold gradient to the 9th concentration (i.e., from 2 mM to 5.12 nM or from 200 μM to 0.512 nM) using a multi-channel pipette, with duplicate wells set up. 78 μL of medium was added to an intermediate plate, and the serially diluted compound was transferred to the corresponding wells of the intermediate plate at 2 μL/well. The mixture was mixed well and then transferred to the cell plate at 20 µL/well. The concentration of the compound transferred to the cell plate ranged from 10 μM to 0.0256 nM or from 1 μM to 0.00256 nM. The cell plate was then incubated in a CO2 incubator for 3-6 days.
The chemiluminescence detection reagent for cell viability was added to the cell plate at 100 μL/well, and the luminescence signals were stabilized by incubation for 10 min at room temperature. Readings were taken using the multimode microplate reader.
The original data were converted to inhibition rates and then the IC50 values were obtained by curve fitting using a four-parameter method (obtained from the “log(inhibitor) vs. response—Variable slope” model in GraphPad Prism). Table 2 illustrates the inhibitory activity of the compounds disclosed herein against the proliferation of different types of tumor cells.

[2] = In-vivo pharmacokinetic study in mice; parameters: species or system male CD-1 mice; conditions: male, CD-1, mouse, plasma
Method: This experiment was intended to evaluate the pharmacokinetic behavior of each compound after a single intravenous injection and intragastric administration and to investigate the bioavailability after intragastric administration.
Male CD-1 mice aged 7 to 10 weeks were selected. The mice were fasted for at least 12 h before administration and were allowed to feed again 4 h after administration, with free access to water throughout the experiment.
On the day of the experiment, animals in the intravenous group were given the corresponding compound by a single injection via the tail vein at an administration volume of 5 mL/kg; animals in the oral group were given the corresponding compound by a single intragastric administration at an administration volume of 10 mL/kg. The animals were weighed before administration, and the administration volume was calculated based on their body weight. Sample collection time points: For the injection group, samples were collected at 0.083 h, 0.25 h, 0.5 h, 1 h, 2 h, 4 h, 8 h, and 24 h; for the intragastric group, samples were collected at 0.25 h, 0.5 h, 1 h, 2 h, 4 h, 6 h, 8 h, and 24 h. At each time point, approximately 30 μL of whole blood was collected via the saphenous vein, which was then used to prepare plasma for concentration determination by high performance liquid chromatography-tandem mass spectrometry (LC-MS/MS). All animals were euthanized with […] after the PK samples were taken at the last time point. The plasma concentrations were processed using a non-compartmental model of the pharmacokinetic software WmnNonlin™ Version 6.3 (Pharsight, Mountain View, CA), and the pharmacokinetic parameters were calculated using a linear log-trapezoidal method.

[3] = iv, injection (tail vein), dose 2 mg/kg
[4] = oral administration, dose 10 mg/kg
[5] = iv, injection (tail vein), dose 1 mg/kg
[6] = oral 2 mg/kg vs injection 1 mg/kg
[7] = oral administration, dose 2 mg/kg

**Q.** What does the source list for `Cc1nc(N2CCC3(CC2)Cn2nccc2C3N)c(CO)nc1Sc1ccnc(N)c1Cl` (stereo not drawn) [Compound 1]?
**A.** IC50 [1]: 0.0226 µM; AUC(0-t) [2, 3]: 2.53 µM·h; clearance [2, 3]: 27.7 mL/min/kg; bioavailability ([2]; oral 10 mg/kg vs injection 2 mg/kg): 69.5%; AUC(0-t) [2, 4]: 8.6 µM·h; Cmax [2, 4]: 3540 nM

**Q.** Which results are given for `CNc1nccc(Sc2nc(CO)c(N3CCC4(CC3)Cn3nccc3C4N)nc2C)c1Cl` (stereo not drawn) [Compound 2]?
**A.** IC50 [1]: 0.0244 µM; AUC(0-t) [2, 5]: 1.32 µM·h; clearance [2, 5]: 27 mL/min/kg; bioavailability [2, 6]: 83.6%; AUC(0-t) [2, 7]: 2.04 µM·h; Cmax [2, 7]: 927 nM

**Q.** For `Cc1nc(N2CCC3(CC2)Cn2nccc2C3N)c(CO)nc1Sc1cccnc1C(F)(F)F` (stereo not drawn) [Compound 4], which IC50 [1] is on record?
**A.** Its IC50 is 0.0569 µM.

**Q.** What about the AUC(0-t) [2, 5] of the same compound?
**A.** The AUC(0-t) was 0.974 µM·h.

**Q.** And the clearance [2, 5]?
**A.** The clearance was 35.5 mL/min/kg.

**Q.** And the bioavailability [2, 6]?
**A.** Its bioavailability is 58.6%.

**Q.** And the AUC(0-t) [2, 7]?
**A.** The AUC(0-t) was 0.99 µM·h.

**Q.** What about the Cmax [2, 7] of the same compound?
**A.** Its Cmax is 372 nM.

**Q.** For `Cc1nc(N2CCC3(CC2)Cn2nccc2C3N)c(CO)nc1Sc1ccnc(N)c1F` (stereo not drawn) [Compound 6], which IC50 [1] is on record?
**A.** Its IC50 is 0.0621 µM.

**Q.** What about the AUC(0-t) [2, 5] of the same compound?
**A.** Its AUC(0-t) is 0.638 µM·h.

**Q.** What about the clearance [2, 5] of the same compound?
**A.** Its clearance is 68.3 mL/min/kg.

**Q.** And the bioavailability [2, 6]?
**A.** The bioavailability was 89.8%.

**Q.** What about the AUC(0-t) [2, 7] of the same compound?
**A.** The AUC(0-t) was 0.817 µM·h.

**Q.** What about the Cmax [2, 7] of the same compound?
**A.** Its Cmax is 463 nM.
